Assay in all cases: NCI-60 cell line screen, 48 h
Test [1] deals with MCF7.
In test [2] the test system is SK-MEL-5.
For test [3], the system named is SW-620.
The test system of test [4] is OVCAR-5.
The test system of test [5] is KM12.
In test [6] the test system is MOLT-4.
Test [7] deals with CCRF-CEM.
For test [8], the system named is MDA-MB-231.
Test [9] has as its system IGROV-1.
Test [10] deals with HOP-92.
Test [11] concerns OVCAR-8.
For test [12], the system named is MDA-MB-435.
In test [13] the test system is 786-0.
The test system of test [14] is Hs-578T.
In test [15] the test system is HCT-116.
For test [16], the system named is HCT-15.
Test [17] relates to K562.
The subject of test [18] is LOX IMVI.
Test [19] deals with UO-31.
The test system of test [20] is SK-MEL-2.

SMILES strings stand for the structures.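 Following 48 hours of exposure in 96-well plates, responses at five concentrations were used to interpolate endpoints linearly. GI50 = concentration required for 50% inhibition of growth.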 The source made the active and inactive calls. Cut-off read from the data, not from the text of the source: active = GI50 up to about 1.1 µM and inactive = higher.

For the compound `CC(=O)Nc1ccc2nc(-c3cccc(Cl)c3)cc(O)c2c1`, the GI50 in test [1] is 3.77 µM (inactive); in test [2], 4.93 µM (inactive); in [3], 4.41 µM (inactive); in test [4] it was 68.4 µM (inactive); in test [5], 4.83 µM (inactive); in test [6], 5.35 µM (inactive). The GI50 in test [7] was 3.44 µM (inactive); in test [8], 0.863 µM (active); in [9] it was 13.4 µM (inactive); in test [10], 4.85 µM (inactive); in [11], 36.9 µM (inactive); in [12], 2.35 µM (inactive). Moreover, the GI50 was 13.4 µM (inactive) in test [13] and 2.59 µM (inactive) in test [14].
Take `FC(F)(F)c1n[nH]c(SCc2ccc(Cl)cc2)n1`: the GI50 in [1], in test [15], in [2], in test [3], in test [4] and in test [5] was > 100 µM (inactive) each time. For the same compound, the GI50 in [6] is > 100 µM (inactive); in test [8], > 100 µM (inactive); in [16], over 100 µM; in [17], > 100 µM (inactive); in test [9], > 100 µM (inactive); in test [18], > 100 µM (inactive). For the same compound, the GI50 in [19] was 59.4 µM (inactive); in [20], > 100 µM (inactive); in test [10], > 100 µM (inactive); in test [11] it was > 100 µM (inactive); in test [12] it was > 100 µM (inactive); in [13] it was > 100 µM (inactive). The GI50 in [14] is 94.8 µM (inactive).
With `COc1ccc(-n2sc3ncc([N+](=O)[O-])cc3c2=O)cc1`, the GI50 in [1], in [15], in test [2], in test [3], in test [4] and in test [5] was > 100 µM (inactive) throughout. Moreover, the GI50 in test [6] is > 100 µM (inactive); in test [7], 96.4 µM (inactive); in test [8], > 100 µM (inactive); in [16] it was over 100 µM; in test [9], > 100 µM (inactive); in test [18], > 100 µM (inactive). For the same compound, the GI50 in test [19] was > 100 µM (inactive); in [20] it was > 100 µM (inactive); in test [11], > 100 µM (inactive); in [12], > 100 µM (inactive); in [13] it was > 100 µM (inactive); in test [14], 32.1 µM (inactive).
On to `COC1=CC(=O)N(C(=O)C2CSC(C(CO)NC(=O)c3csc(/C=N/O)n3)=N2)C1` (stereo not given), for which the GI50 in test [1], in test [15], in test [2], in test [3], in test [4] and in test [5] was > 100 µM (inactive) in each case. For the same compound, the GI50 in test [6] is > 100 µM (inactive); in test [7], > 100 µM (inactive); in test [8], > 100 µM (inactive); in test [16] it was over 100 µM; in [17] it was > 100 µM (inactive); in test [9], > 100 µM (inactive). The GI50 in [18] was > 100 µM (inactive); in test [20] it was > 100 µM (inactive); in test [11], > 100 µM (inactive); in test [12], > 100 µM (inactive); in [13], > 100 µM (inactive); in test [14] it was 15.9 µM (inactive).
In the case of `CCOC(=O)c1ccc(Nc2nc3cc(C(F)(F)F)ccc3nc2-c2ccccc2)cc1`, the GI50 in test [1] is 19.8 µM (inactive); in [15], 67.6 µM (inactive); in test [2], 65 µM (inactive); in [3], 63.2 µM (inactive); in [4], 30.1 µM (inactive); in test [5] it was 28.4 µM (inactive). The GI50 in test [6] was > 10 µM (inactive); in test [7], 43.3 µM (inactive); in test [8], 79.6 µM (inactive); in test [16], over 100 µM; in [17], > 100 µM (inactive); in [9] it was 36.1 µM (inactive). The GI50 is > 100 µM (inactive) in test [18]; > 100 µM (inactive) in test [19]; 31.3 µM (inactive) in test [11]; 69.3 µM (inactive) in [12]; 18.7 µM (inactive) in test [13]; 36.1 µM (inactive) in test [14].
Consider `OCC1CCCCCCCCCCC12SCCCS2` (stereo not given), for which the GI50 in test [1], in test [15], in test [2], in test [3], in [4] and in test [5] was > 100 µM (inactive) each time. Besides, the GI50 in test [6] was > 100 µM (inactive); in test [7], > 100 µM (inactive); in test [16], over 100 µM; in test [17] it was 48.2 µM (inactive); in test [9] it was > 100 µM (inactive); in test [18], > 100 µM (inactive). For the same compound, the GI50 in [19], in test [20], in test [10], in test [12], in test [13] and in test [14] was > 100 µM (inactive) each time.
Take `N#Cc1ccc(-c2nc3cc(Cl)ccc3[nH]2)cc1`: the GI50 in test [1] was 63 µM (inactive); in [2], 37.8 µM (inactive); in test [3], > 100 µM (inactive); in [5] it was 25.3 µM (inactive); in test [6] it was 23.1 µM (inactive); in test [7], 41.2 µM (inactive). The GI50 in test [8] was > 100 µM (inactive); in test [16], 39.9 µM; in [17], 50.2 µM (inactive); in test [9], > 100 µM (inactive); in test [19] it was 27.6 µM (inactive); in test [20], > 100 µM (inactive). In addition, the GI50 in [10] is > 100 µM (inactive); in test [11], 42.8 µM (inactive); in [13], > 100 µM (inactive); in [14], > 100 µM (inactive).
Consider `ClC(Cl)(Cl)C1CCOC1n1nc2ccccc2n1` (stereo not given), for which the GI50 in test [1], in test [15], in test [2], in test [4], in [6] and in [7] was > 100 µM (inactive) each time. Also, the GI50 in test [8] is > 100 µM (inactive); in test [16], over 100 µM; in test [17], > 100 µM (inactive); in [9] it was > 100 µM (inactive); in [20], > 100 µM (inactive); in [11], > 100 µM (inactive). Besides, the GI50 in test [12], in [13] and in test [14] was > 100 µM (inactive) throughout.
With `[O-][S+](Nc1ccccc1)c1ccc(Cl)c(Cl)c1` (stereo not given), the GI50 in test [1] was 33.7 µM (inactive); in test [15], 33.1 µM (inactive); in test [2], 23.4 µM (inactive); in test [3], > 100 µM (inactive); in [5], 14.7 µM (inactive); in test [6], 23.7 µM (inactive). For the same compound, the GI50 is > 100 µM (inactive) in test [7]; 40.9 µM (inactive) in test [8]; 57.3 µM in test [16]; 39.9 µM (inactive) in test [17]; 21.5 µM (inactive) in test [9]; 38.8 µM (inactive) in test [18]. Further, the GI50 in [19] was 52 µM (inactive); in test [20], 33.3 µM (inactive); in test [11], 66.4 µM (inactive); in test [12], 24.2 µM (inactive); in test [13], 53.8 µM (inactive); in test [14], 24.5 µM (inactive).
Consider `CC(C)(N)C(=O)N[C@@H]1C(=O)N2[C@@H]1SC(C)(C)[C@@H]2C(=O)O`, for which the GI50 in test [1], in test [15], in [2], in test [3], in test [4] and in test [5] was > 100 µM (inactive) in each case. Besides, the GI50 in test [8] is > 100 µM (inactive); in [16] it was over 100 µM; in [17], > 100 µM (inactive); in test [9], > 100 µM (inactive); in [18] it was > 100 µM (inactive); in [19] it was > 100 µM (inactive). Besides, the GI50 in test [20], in [10], in test [11], in test [12], in [13] and in test [14] was > 100 µM (inactive) each time.
As to `COc1ccc(N2C(=O)C(=O)C3(CCCCC3)C2=O)c(OC)c1OC`, the GI50 in test [1], in test [15], in test [2], in [3], in test [4] and in [5] was > 100 µM (inactive) each time. Also, the GI50 in [6] is > 100 µM (inactive); in [7] it was > 100 µM (inactive); in test [16], over 100 µM; in test [18], > 100 µM (inactive); in test [19], > 100 µM (inactive); in test [11], > 100 µM (inactive). Moreover, the GI50 in test [12], in test [13] and in test [14] was > 100 µM (inactive) in each case.
Turning to `O=C1CCCCC/C1=C\c1ccc(F)cc1`, the GI50 in test [15] is 89.3 µM (inactive); in [2], 44.8 µM (inactive); in test [3], > 100 µM (inactive); in test [4] it was > 100 µM (inactive); in test [5] it was > 100 µM (inactive); in test [6], 67.3 µM (inactive). The GI50 was 24.4 µM (inactive) in test [7]; > 100 µM (inactive) in [8]; over 100 µM in [16]; > 100 µM (inactive) in [17]; > 100 µM (inactive) in test [9]; 94 µM (inactive) in test [18]. Besides, the GI50 in test [19] was 42.4 µM (inactive); in test [20], > 100 µM (inactive); in test [10], 61.1 µM (inactive); in test [12], 74.1 µM (inactive); in test [13], > 100 µM (inactive); in test [14] it was 86.1 µM (inactive).
